According to PubChem BioAssay AID2060496 (Molecular Pharmacology Branch, DTP, NCI, 2025):

System: 276233-004-R-J1-PDC complex spheroid viability
Assay: Anticancer human tumor 276233-004-R-J1-PDC patient-derived colon adenocarcinoma cell line growth inhibition [GQUAD]
Details: for IC50: curve of first compound; for viability, T/C: stronger effect = lower value
Description: DNA G-quadruplex Stabilizer Agents in Combinations in Complex Spheroids
A high-throughput screen of multi-cell type tumor spheroids was designed to identify active combinations of DNA G-quadruplex stabilizer agents and targeted small molecules. Complex spheroids include a stromal component modeled by human endothelial cells (HUVEC) and fibroblasts modeled by human mesenchymal stem cells (MSCs). The concentration ranges selected for each drug and investigational agent were based upon clinically achievable concentrations if the clinical Cmax of the agent was known.
Compounds. The drugs and investigational agents: pidnarulex (CX-5461; NSC782164), APTO-253 (NSC789042), BRACO-19 (NSC847499), peposertib (NSC802822), ceralasertib (NSC780249), elimusertib (NSC800525), camonsertib (NSC841442), AZD-1390 (NSC803789), olaparib (NSC753686), talazoparib (NSC767125), ART-558 (NSC835418), sotorasib (NSC818433), MRTX-1133 (NSC836407), SN-38 (NSC673596), topotecan (NSC609699), etoposide (NSC141540), doxorubicin (NSC123127), gemcitabine (NSC613327), 5-fluorouracil (NSC19893), paclitaxel (NSC125973), vemurafenib (NSC761431), panobinostat (NSC761190), R-306465 (JNJ-16241199; NSC773264), adavosertib (NSC754352), TP-3654 (NSC805149), carboplatin (NSC241240), KSQ-4279 (NSC840948), and staurosporine (NSC755774) were obtained from the National Cancer Institute (NCI) Developmental Therapeutics Program Chemical Repository (34). The FDA-approved anticancer drug set is available from the NCI Developmental Therapeutics Program. […] The stock solutions were prepared in dimethyl sulfoxide (DMSO, Sigma-Aldrich, St. Louis, MO, cat. D2650) at 800-fold the tested concentration and stored at -70 degrees C prior to their use. All drugs and investigational agents were tested over a range starting from a high concentration at or near the clinical Cmax and decreasing in half-log increments. If the clinical Cmax for an agent had not been determined, the highest concentration tested was 10 microM.
2.3 Cell Culture. All cells were maintained in an incubator at 37 degrees C and 5% CO2 with 95% humidity. The PDC lines were cultured according to standard operating procedures established by the NCI PDMR. All PDCs were thawed and cultured in Matrigel-coated flasks prepared with a working solution of 1X Ham's F-12 nutrient mix, without supplementation (Invitrogen, cat. 11765054), 100 U/mL penicillin-streptomycin (Invitrogen, cat. 15140122), and 2.5% Matrigel (Corning Inc., cat. 354248) for the first three passages. The 857933-349-R-J2-PDC line was cultured in 6C/Colon 1B media, which includes advanced DMEM/F-12 (Thermo Fisher Scientific, cat. 12634028), 10 mM HEPES (Thermo Fisher Scientific, cat. 15630080), 1X GlutaMAX supplement (Thermo Fisher Scientific, cat. 35050061), 0.1 mg/mL primocin (InvivoGen, cat. ant-pm-2), 10% defined fetal bovine serum, heat inactivated (HyClone Laboratories Inc., cat. SH30070.03HI), 50% L-WRN conditioned media (ATCC, cat. CRL-3276), 1.25 mM N-Acetyl-L-cysteine (Sigma-Aldrich, cat. A9165), 10 mM nicotinamide (Sigma-Aldrich, cat. N0636), 1X B-27 supplement (Thermo Fisher Scientific, cat. 17504044), 1X N-2 supplement (Thermo Fisher Scientific, cat. 17502048), 10 microM Y-27632 dihydrochloride (Tocris Bioscience, cat. 1254), and 50 ng/mL human EGF recombinant protein (Thermo Fisher Scientific, cat. PHG0311). The 485176-168-R4-J1-PDC line was cultured in Panc media, which includes all 6C/Colon 1B media components plus 100 ng/mL human FGF-10 (Thermo Fisher Scientific, cat. 100-26), 500 nM SB-431542 (Selleckchem, cat. S1067), and gastrin (Tocris, cat. 3006).
[…]
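Note: spheroids exposed to drugs for seven days.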
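Throughout, for viability, T/C: 100% = DMSO vehicle control viability.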

C=CCn1c(=O)c2cnc(Nc3ccc(N4CCN(C)CC4)cc3)nc2n1-c1cccc(C(C)(C)O)n1 + CN(C)c1ccc(Nc2c3ccc(NC(=O)CCN4CCCC4)cc3nc3cc(NC(=O)CCN4CCCC4)ccc23)cc1
IC50 (second compound 0.0316 µM): > 10 µM
IC50 (second compound 0.1 µM): > 10 µM
IC50 (second compound 0.316 µM): > 10 µM
IC50 (second compound 1 µM): < 0.0316 µM
IC50 (second compound 3.16 µM): 0.459 µM
IC50 (second compound 10 µM): < 0.0316 µM
viability, T/C (second compound 0.0316 µM, first compound 0.0316 µM): 87.6%
viability, T/C (second compound 0.0316 µM, first compound 0.1 µM): 86.2%
viability, T/C (second compound 0.0316 µM, first compound 0.316 µM): 66.3%
viability, T/C (second compound 0.0316 µM, first compound 1 µM): 68.4%
viability, T/C (second compound 0.0316 µM, first compound 3.16 µM): 68.6%
viability, T/C (second compound 0.0316 µM, first compound 10 µM): 88.7%
viability, T/C (second compound 0.1 µM, first compound 0.0316 µM): 81.6%
viability, T/C (second compound 0.1 µM, first compound 0.1 µM): 80.5%
viability, T/C (second compound 0.1 µM, first compound 0.316 µM): 49%
viability, T/C (second compound 0.1 µM, first compound 1 µM): 64.7%
viability, T/C (second compound 0.1 µM, first compound 3.16 µM): 53.2%
viability, T/C (second compound 0.1 µM, first compound 10 µM): 67.9%
viability, T/C (second compound 0.316 µM, first compound 0.0316 µM): 81.5%
viability, T/C (second compound 0.316 µM, first compound 0.1 µM): 67.3%
viability, T/C (second compound 0.316 µM, first compound 0.316 µM): 54.6%
viability, T/C (second compound 0.316 µM, first compound 1 µM): 51.6%
viability, T/C (second compound 0.316 µM, first compound 3.16 µM): 54.8%
viability, T/C (second compound 0.316 µM, first compound 10 µM): 75%
viability, T/C (second compound 1 µM, first compound 0.0316 µM): 47.1%
viability, T/C (second compound 1 µM, first compound 0.1 µM): 56.2%
viability, T/C (second compound 1 µM, first compound 0.316 µM): 49.7%
viability, T/C (second compound 1 µM, first compound 1 µM): 42.5%
viability, T/C (second compound 1 µM, first compound 3.16 µM): 54.7%
viability, T/C (second compound 1 µM, first compound 10 µM): 74%
viability, T/C (second compound 3.16 µM, first compound 0.0316 µM): 56.9%
viability, T/C (second compound 3.16 µM, first compound 0.1 µM): 52.5%
viability, T/C (second compound 3.16 µM, first compound 0.316 µM): 57.2%
viability, T/C (second compound 3.16 µM, first compound 1 µM): 38.1%
viability, T/C (second compound 3.16 µM, first compound 3.16 µM): 52.1%
viability, T/C (second compound 3.16 µM, first compound 10 µM): 40.2%
viability, T/C (second compound 10 µM, first compound 0.0316 µM): 41.4%
viability, T/C (second compound 10 µM, first compound 0.1 µM): 45.5%
viability, T/C (second compound 10 µM, first compound 0.316 µM): 53.8%
viability, T/C (second compound 10 µM, first compound 1 µM): 38.9%
viability, T/C (second compound 10 µM, first compound 3.16 µM): 47.9%
viability, T/C (second compound 10 µM, first compound 10 µM): 54.6%
